Experimental data published in patent publication US20050026911A1, “Benzotriazapinone salts and methods for using same” (priority 2003, published 2005).

These compounds were tested against T1, gastrin (CCK2) receptors (Rattus norvegicus, UniProt P30553) (assay: gastrin (CCK2) antagonist activity in an immature rat stomach assay). Settings: pentagastrin dose-response curves, acid secretion, read-out: pKB rat stomach (converted).
T1 construct: The stomach was excised and flushed with ca. 1 ml of unbuffered physiological saline solution; from tissue; host or cells: isolated whole stomach of immature rats (ca. 21 days old)
T1 sequence (P30553 1-452): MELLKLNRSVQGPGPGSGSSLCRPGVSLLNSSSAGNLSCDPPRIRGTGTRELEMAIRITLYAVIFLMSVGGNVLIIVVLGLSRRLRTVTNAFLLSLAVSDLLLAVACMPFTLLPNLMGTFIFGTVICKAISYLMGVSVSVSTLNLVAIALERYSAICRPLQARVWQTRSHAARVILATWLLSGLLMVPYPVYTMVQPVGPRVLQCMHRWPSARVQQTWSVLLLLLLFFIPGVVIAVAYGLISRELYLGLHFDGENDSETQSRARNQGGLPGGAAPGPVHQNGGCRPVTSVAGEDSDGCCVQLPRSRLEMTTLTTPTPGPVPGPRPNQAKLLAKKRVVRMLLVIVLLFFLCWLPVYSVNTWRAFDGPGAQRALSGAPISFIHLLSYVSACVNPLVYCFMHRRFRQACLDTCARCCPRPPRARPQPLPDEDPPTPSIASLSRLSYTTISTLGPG
Experimental: The compounds of the examples were tested for gastrin (CCK2) antagonist activity in an immature rat stomach assay. The procedure was as follows:
The oesophagus of immature rats (33-50 g, ca. 21 days old) was ligated at the level of the cardiac sphincter and the duodenal sphincter was cannulated. The stomach was excised and flushed with ca. 1 ml of unbuffered physiological saline solution. The fundus was punctured and cannulated. A further 4-5 ml of unbuffered solution was flushed through the stomach to ensure the preparation was not leaking. […] The stomach was continuously perfused at a rate of 1 ml min^−1 with unbuffered solution gassed with 100% O2 with the perfusate passing over an internally referenced pH-electrode fixed 12 cm above the stomach.
After 120 min of stabilisation the drugs were added directly to the serosal solution in the organ bath and after a further 60 min cumulative pentagastrin dose-response curves were started.

Kb	SMILES
40.7 nM	Cc1ccc2c(c1)N(CC(=O)C(C)(C)C)C(=O)N(CC(=O)Nc1cccc(C(=O)O)c1)N=C2C1CCCCC1 [Example 112, 3-{2-[5-Cyclohexyl-1-(3,3-dimethyl-2-oxo-butyl)-8-methyl-2-oxo-1,2-dihydro-3H-1,3,4-benzotriazepin-3-yl]-acetylamino}-benzoic acid]
661 nM	CC(C)(C)C(=O)CN1C(=O)N(CC(=O)Nc2ccccn2)N=C(C2CCCCC2)c2ccccc21 [Example 63, 2-[5-Cyclohexyl-1-(3,3-dimethyl-2-oxo-butyl)-2-oxo-1,2-dihydro-3H-1,3,4-benzotriazepin-3-yl]-N-pyridin-2-yl-acetamide]
2.51 nM	O=C(CN1N=C(C2CCCCC2)c2ccccc2N(CC(=O)C2CCCCC2)C1=O)Nc1cccc(C(=O)O)c1 [Example 79, 3-{2-[5-Cyclohexyl-1-(2-cyclohexyl-2-oxo-ethyl)-2-oxo-1,2-dihydro-3H-1,3,4-benzotriazepin-3-yl]-acetylamino}-benzoic acid]
14.1 nM	CC1(C(=O)CN2C(=O)N(CC(=O)Nc3cccc(CC(=O)O)c3)N=C(C3CCCCC3)c3ccccc32)CCCCC1 [Example 133, [3-(2-{5-Cyclohexyl-1-[2-(1-methyl-cyclohexyl)-2-oxo-ethyl]-2-oxo-1,2-dihydro-3H-1,3,4-benzotriazepin-3-yl}-acetylamino)-phenyl]-acetic acid]
67.6 nM	CNc1cc(NC(=O)CN2N=C(C3CCCCC3)c3ccccc3N(CC(=O)C(C)(C)C)C2=O)cc(C(=O)O)c1 [Example 73, 3-{2-[5-Cyclohexyl-1-(3,3-dimethyl-2-oxo-butyl)-2-oxo-1,2-dihydro-3H-1,3,4-benzotriazepin-3-yl]-acetylamino}-5-methylamino-benzoic acid]
1.62 nM	CC(C)(C)C(=O)CN1C(=O)N(CC(=O)Nc2ccc3ccn(Cc4nnn[nH]4)c3c2)N=C(C2CCCCC2)c2ccccc21 [Example 131, 2-[5-Cyclohexyl-1-(3,3-dimethyl-2-oxo-butyl)-2-oxo-1,2-dihydro-3H-1,3,4-benzotriazepin-3-yl]-N-[1-(1H-tetrazol-5-ylmethyl)-1H-indol-6-yl]-acetamide]
7.24 nM	CN(CC(=O)O)c1cccc(NC(=O)CN2N=C(C3CCCCC3)c3ccccc3N(CC(=O)C(C)(C)C)C2=O)c1 [Example 96, [(3-{2-[5-Cyclohexyl-1-(3,3-dimethyl-2-oxo-butyl)-2-oxo-1,2-dihydro-3H-1,3,4-benzotriazepin-3-yl]-acetylamino}-phenyl)-methyl-amino]-acetic acid]
372 nM	CNc1cc(NC(=O)CN2N=C(C3CCCCC3)c3ccccc3N(CC(=O)C(C)(C)C)C2=O)cc(C(=O)OC)c1 [Example 74, 3-{2-[5-Cyclohexyl-1-(3,3-dimethyl-2-oxo-butyl)-2-oxo-1,2-dihydro-3H-1,3,4-benzotriazepin-3-yl]-acetylamino}-5-methylamino-benzoic acid methyl ester]
3.39 nM	CC(C)(C)C(=O)CN1C(=O)N(CC(=O)Nc2cccc(SCc3nn[nH]n3)c2)N=C(C2CCCCC2)c2ccccc21 [Example 86, 2-[5-Cyclohexyl-1-(3,3-dimethyl-2-oxo-butyl)-2-oxo-1,2-dihydro-3H-1,3,4-benzotriazepin-3-yl]-N-[3-(4H-tetrazol-5-ylmethylsutfanyl)-phenyl]-acetamide]
263 nM	CNc1cccc(NC(=O)CN2N=C(C3CCCCC3)c3ccccc3N(CC(=O)N3CCN(C)CC3)C2=O)c1 [Example 72, 2-{5-Cyclohexyl-1-[2-(4-methyl-piperazin-1-yl)-2-oxo-ethyl]-2-oxo-1,2-dihydro-3H-1,3,4-benzotriazepin-3-yl}-N-(3-methylamino-phenyl)-acetamide]

SMILES	Kb
CC(C)(C)C(=O)CN1C(=O)N(CC(=O)Nc2cccc(N3CCOCC3)c2)N=C(C2CCCCC2)c2ccccc21 [Example 123, 2-[5-Cyclohexyl-1-(3,3-dimethyl-2-oxo-butyl)-2-oxo-1,2-dihydro-3H-1,3,4-benzotriazepin-3-yl]-N-(3-morpholin-4-yl-phenyl)-acetamide]	18.2 nM
